Our source for the IC50 values is US20110105474A1, “HETEROCYCLIC DERIVATIVES AS HDAC INHIBITORS” (DAC S.r.l., priority 2008, published 2011).

What all share (type): cell-based
One assay deals with HCT-116 cells. As to the kind of experiment: Cell growth, CellTiter-Glo Luminescent Cell Viability Assay, HCT-116. The note with it: Homo sapiens, 72 h incubation, read-out: IC50 HCT116. An excerpt:
(§1) CellTiter-Glo® Luminescent Cell Viability Assay (Promega) is a homogeneous method of determining the number of viable cells in culture based on quantitation of the present ATP, which indicates the presence of metabolically active cells. The homogeneous assay procedure involves addition of a single reagent (CellTiter-Glo®Reagent) directly to the cells, which leads to cell lysis and generation of a luminescent signal proportional to the amount of the ATP and the number of cells present in culture. The assay relies on the properties of a proprietary thermostable luciferase (Ultra-Glo® recombinant luciferase), which generates a luminescent signal.
(§2) K562, A549 and HCT-116 cells, in exponential growth, were incubated for 72 h with different concentrations of the inhibitors. After 72 h, a volume of CellTiter-Glo® Reagent equal to the volume of cell culture medium was added. The content was mixed for 2 min to induce cell lysis. The luminescence was recorded after further 10 min at RT in order to obtain a stabilized luminescent signal.
(§3) The IC50 was calculated using GraphPad Software.
(§4) IC50 results were allocated to one of 3 ranges as follows: Range A: IC50≦1.0 μM; Range B: from 1.0 to 3.0 μM; Range C: IC50≧3.0 μM.

The subject of the next assay is A549 cells. Nature of the assay: Cell growth, CellTiter-Glo Luminescent Cell Viability Assay, A549. As to conditions: Homo sapiens, 72 h incubation.
From the text: as §1, §2, §3, §4

The next assay relates to K562 cells. Nature of the assay: Cell growth, CellTiter-Glo Luminescent Cell Viability Assay, K562. As to conditions: Homo sapiens, 72 h incubation.
From the text: as §1, §2, §3, §4

Molecules are shown by their SMILES. pIC50: −log10 of the molar value. Where a name gives a salt, the structure may show the parent alone. Where only a bound is given, the exact number is not on record here.

`O=C(/C=C/c1cccc(/C=C/C(=O)N2CCC3(CC2)C(=O)NCN3c2ccccc2)n1)NO` [Example 32, (E)-N-Hydroxy-3-{6-[(E)-3-oxo-3-(4-oxo-1-phenyl-1,3,8-triaza-spiro[4.5]dec-8-yl)-propenyl]-pyridin-2-yl}-acrylamide hydrochloride]: the pIC50 with HCT-116 cells, in the assay with A549 cells and with K562 cells was at most 5.52 throughout.
On to `O=C(/C=C/c1cccc(/C=C/C(=O)N2CCCc3nc(-c4ccccc4)sc32)n1)NO` [Example 98, (E)-N-Hydroxy-3-{6-[(E)-3-oxo-3-(2-phenyl-6,7-dihydro-5H-thiazolo[5,4-b]pyridin-4-A-propenyl]-pyridin-2-yl}-acrylamide trifluoroacetate], for which the figures for the pIC50 in the assay with HCT-116 cells, in the assay with A549 cells and in the assay on K562 cells were at least 6.00, 5.52 to 6.00 and 5.52 to 6.00, respectively.
For `CS(=O)(=O)c1ccc(N2CCN(C(=O)/C=C/c3cccc(/C=C/C(=O)NO)n3)CC2)cc1` [Example 51, (E)-N-Hydroxy-3-(6-{(E)-3-[4-(4-methanesulfonyl-phenyl)-piperazin-1-yl]-3-oxo-propenyl}-pyridin-2-yl)-acrylamide hydrochloride], the pIC50 in the assay on HCT-116 cells, with A549 cells and with K562 cells was at most 5.52 each time.
For the molecule `O=C(/C=C/c1cccc(/C=C/C(=O)N2CCN(c3ccccc3Cl)CC2)n1)NO` [Example 18, (E)-3-(6-{(E)-3-[4-(2-Chloro-phenyl)-piperazin-1-yl]-3-oxo-propenyl}-pyridin-2-yl)-N-hydroxy-acrylamide hydrochloride], the negative logarithm of the IC50 (pIC50) with HCT-116 cells is at least 6.00; in the assay with A549 cells, 5.52 to 6.00; in the assay with K562 cells it was 5.52 to 6.00.
As to `Cc1ccccc1C1CCCN(C(=O)/C=C/c2cccc(/C=C/C(=O)NO)n2)C1` (racemic) [Example 42, (±)-(E)-N-Hydroxy-3-{6-[(E)-3-oxo-3-(3-o-tolyl-piperidin-1-yl)-propenyl]-pyridin-2-yl}-acrylamide hydrochloride], the pIC50 was 5.52 to 6.00 in the assay with HCT-116 cells, at least 6.00 in the assay with A549 cells and at least 6.00 with K562 cells.
For the molecule `O=C(/C=C/c1cccc(/C=C/C(=O)N2CCN(c3cccc(Cl)c3)CC2)n1)NO` [Example 15, (E)-3-(6-{(E)-3-[4-(3-Chloro-phenyl)-piperazin-1-yl]-3-oxo-propenyl}-pyridin-2-yl)-N-hydroxy-acrylamide], the pIC50 was 5.52 to 6.00 in the assay with HCT-116 cells, at most 5.52 in the assay with A549 cells and 5.52 to 6.00 in the assay with K562 cells.
Regarding `O=C(/C=C/c1cccc(/C=C/C(=O)N2CCCC(c3cccc(F)c3)C2)n1)NO` (stereo not drawn) [Example 93, (E)-3-(6-{(E)-3-[3-(3-Fluoro-phenyl)-piperidin-1-yl]-3-oxo-propenyl}-pyridin-2-yl)-N-hydroxy-acrylamide hydrochloride], the pIC50 in the assay with HCT-116 cells, in the assay with A549 cells and in the assay on K562 cells was at least 6.00 each time.
Turning to `Cc1ccc(C2CCCN(C(=O)/C=C/c3cccc(/C=C/C(=O)NO)c3)C2)cc1` (racemic) [Example 80, (±)-(E)-N-Hydroxy-3-{3-[(E)-3-oxo-3-(3-p-tolyl-piperidin-1-yl)-propenyl]-phenyl}-acrylamide], the pIC50 in the assay with HCT-116 cells, in the assay on A549 cells and with K562 cells was at most 5.52 throughout.
As to `COc1ccc(C2CCCN(C(=O)/C=C/c3cccc(/C=C/C(=O)NO)n3)C2)cc1` (racemic) [Example 69, (±)-(E)-N-Hydroxy-3-(6-{(E)-3-[3-(4-methoxy-phenyl)-piperidin-1-yl]-3-oxo-propenyl}-pyridin-2-yl)-acrylamide hydrochloride], the negative-log IC50 (pIC50) with HCT-116 cells, in the assay with A549 cells and with K562 cells was at least 6.00 throughout.
Turning to `O=C(/C=C/c1cccc(/C=C/C(=O)N2CCN(c3ccc(Cl)cc3)CC2)c1)NO` [Example 76, (E)-3-(3-{(E)-3-[4-(4-Chloro-phenyl)-piperazin-1-yl]-3-oxo-propenyl}-phenyl)-N-hydroxy-acrylamide hydrochloride], the pIC50 in the assay with HCT-116 cells, with A549 cells and in the assay with K562 cells was at least 6.00 throughout.
On to `O=C(/C=C/c1cccc(/C=C/C(=O)N2CCc3c([nH]c4ccccc34)C2)n1)NO` [Example 56, (E)-N-Hydroxy-3-{6-[(E)-3-oxo-3-(1,3,4,9-tetrahydro-beta-carbolin-2-yl)-propenyl]-pyridin-2-yl}-acrylamide hydrochloride], for which the pIC50 was 5.52 to 6.00 in the assay with HCT-116 cells, at most 5.52 in the assay with A549 cells and 5.52 to 6.00 in the assay on K562 cells.
On to `O=C(/C=C/c1cccc(/C=C/C(=O)N2CCC(c3ccccc3)C2)n1)NO` (racemic) [Example 52, (±)-(E)-N-Hydroxy-3-{6-[(E)-3-oxo-3-(3-phenyl-pyrrolidin-1-yl)-propenyl]-pyridin-2-yl}-acrylamide hydrochloride], for which the pIC50 with HCT-116 cells was 5.52 to 6.00; in the assay with A549 cells, at most 5.52; in the assay with K562 cells, 5.52 to 6.00.
Consider `O=C(/C=C/c1cccc(/C=C/C(=O)N2CCN(c3ccc(C(F)(F)F)cc3)CC2)n1)NO` [Example 35, (E)-N-Hydroxy-3-(6-{(E)-3-oxo-3-[4-(4-trifluoromethyl-phenyl)-piperazin-1-yl]-propenyl}-pyridin-2-yl)-acrylamide hydrochloride], for which the negative-log IC50 (pIC50) is at least 6.00 in the assay on HCT-116 cells, at least 6.00 in the assay on A549 cells and 5.52 to 6.00 in the assay on K562 cells.
`O=C(/C=C/c1cccc(/C=C/C(=O)N2CC=C(c3ccccc3)CC2)n1)NO` [Example 26, (E)-N-Hydroxy-3-{6-[(E)-3-oxo-3-(4-phenyl-3,6-dihydro-2H-pyridin-1-yl)-propenyl]-pyridin-2-yl}-acrylamide hydrochloride]: the negative-log IC50 (pIC50) in the assay with HCT-116 cells was at least 6.00; in the assay with A549 cells, 5.52 to 6.00; in the assay on K562 cells, 5.52 to 6.00.
In the case of `O=C(/C=C/c1cccc(/C=C/C(=O)N2CCC=C(c3ccccc3)C2)c1)NO` [Example 89, (E)-N-Hydroxy-3-{3-[(E)-3-oxo-3-(5-phenyl-3,6-dihydro-2H-pyridin-1-yl)-propenyl]-phenyl}-acrylamide], the pIC50 with HCT-116 cells, in the assay with A549 cells and in the assay with K562 cells was at most 5.52 throughout.
With `N#Cc1ccc(N2CCN(C(=O)/C=C/c3cccc(/C=C/C(=O)NO)n3)CC2)cc1` [Example 36, (E)-3-(6-{(E)-3-[4-(4-Cyano-phenyl)-piperazin-1-yl]-3-oxo-propenyl}-pyridin-2-yl)-N-hydroxy-acrylamide hydrochloride], the pIC50 with HCT-116 cells, in the assay on A549 cells and in the assay on K562 cells was at most 5.52 in each case.
Consider `O=C(/C=C/c1cccc(/C=C/C(=O)N2CCc3ccccc3C2)n1)NO` [Example 58, (E)-3-{6-[(E)-3-(3,4-Dihydro-1H-isoquinolin-2-yl)-3-oxo-propenyl]-pyridin-2-yl}-N-hydroxy-acrylamide hydrochloride], for which the pIC50 was at least 6.00 with HCT-116 cells, 5.52 to 6.00 in the assay with A549 cells and at least 6.00 in the assay on K562 cells.
Turning to `O=C(/C=C/c1cccc(/C=C/C(=O)N2CCC(Cc3ccccc3)CC2)c1)NO` [Example 86, (E)-3-{3-[(E)-3-(4-Benzyl-piperidin-1-yl)-3-oxo-propenyl]-phenyl}-N-hydroxy-acrylamide], the pIC50 in the assay with HCT-116 cells, in the assay with A549 cells and with K562 cells was at most 5.52 in each case.
As for `O=C(/C=C/c1cccc(/C=C/C(=O)N2CCCC(c3ccccc3)C2)n1)NO` (stereo not drawn) [Example 74, (E)-N-Hydroxy-3-{6-[(E)-3-oxo-3-((12)-3-phenyl-piperidin-1-yl)-propenyl]-pyridin-2-yl}-acrylamide hydrochloride], the pIC50 in the assay with HCT-116 cells, with A549 cells and in the assay on K562 cells was at least 6.00 in each case.
For the molecule `O=C(/C=C/c1ccc(/C=C/C(=O)N2CCN(c3ccccc3)CC2)cc1)NO` [Example 7, (E)-N-Hydroxy-3-{4-[(E)-3-oxo-3-(4-phenyl-piperazin-1-yl)-propenyl]-phenyl}-acrylamide], the pIC50 in the assay on HCT-116 cells, in the assay on A549 cells and in the assay on K562 cells was at most 5.52 in each case.
`O=C(/C=C/c1cccc(/C=C/C(=O)N2CCN(c3ccccn3)CC2)n1)NO` [Example 29, (E)-N-Hydroxy-3-{6-[(E)-3-oxo-3-(4-pyridin-2-yl-piperazin-1-yl)-propenyl]-pyridin-2-yl}-acrylamide hydrochloride]: the pIC50 in the assay with HCT-116 cells, with A549 cells and with K562 cells was at most 5.52 in each case.
Regarding `O=C(/C=C/c1cccc(/C=C/C(=O)N2CCCC(c3ccccc3)CC2)n1)NO` (racemic) [Example 54, (±)-(E)-N-Hydroxy-3-{6-[(E)-3-oxo-3-(4-phenyl-azepan-1-yl)-propenyl]-pyridin-2-yl}-acrylamide hydrochloride], the pIC50 was at least 6.00 in the assay with HCT-116 cells, 5.52 to 6.00 with A549 cells and at least 6.00 in the assay on K562 cells.
Regarding `O=C(/C=C/c1cccc(/C=C/C(=O)N2CCCC(c3cccc4ccccc34)C2)n1)NO` (racemic) [Example 44, (±)-(E)-N-Hydroxy-3-{6-[(E)-3-(3-naphthalen-1-yl-piperidin-1-yl)-3-oxo-propenyl]-pyridin-2-yl}-acrylamide hydrochloride], the pIC50 is at least 6.00 with HCT-116 cells, 5.52 to 6.00 in the assay on A549 cells and at least 6.00 in the assay with K562 cells.
